The numbers were not newly measured in US10463613B2, “Cromolyn compositions for treatment of chronic cough due to idiopathic pulmonary fibrosis” (Respivant Sciences GmbH, priority 2016, dated 2019), which cites them from elsewhere.

Read-outs that look alike come from different tables or passages of the source.

For the data set the following is noted: in vivo.

`O=C([O-])c1cc(=O)c2c(OCC(O)COc3cccc4oc(C(=O)O)cc(=O)c34)cccc2o1.[Na+]` [cromolyn sodium, disodium 5,5′-(2-hydroxypropane-1,3-diyl)bis(oxy)bis(4-oxo-4H-chromene-2-carboxylate)]: the “Bioavailability of available formulations” value was “approximately 1%” and the Oral bioavailability is given as roughly 1%. Besides, for the setting “listed as cromolyn”, the Oral bioavailability result was “about 1%”.
